Assay results taken from patent US20260217706A1, “HETEROCYCLIC COMPOUNDS, PREPARATION METHOD THEREFOR AND USE THEREOF” (GUANGZHOU YUFAN NANTU BIOTECHNOLOGIES CO., LTD, priority 2023, published 2026).

Experiments:
[1] = system: anti-CD3 activated human PBMCs; assay: Effect of compounds on the level of IL-2 secretion by anti-CD3 activated human PBMCs (IL-2 ELISA); type: cell-based; settings: compound concentration at which fold change in IL-2 = 5; hPBMCs, CD3 antibody 2 μg/mL, 48 h, compound from 3 μM
In short: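 Human PBMCs were preincubated 1 h, then exposed to compound (10 points, 3-fold from 3 μM final) with anti-CD3 at 2 μg/mL for 48 h at 37° C. Supernatant IL-2 was measured by ELISA as fold change over DMSO.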

CBL-B protein = CBL-B protein (Homo sapiens, UniProt Q13191); assay: CBL-B binding experiment (Streptavidin-Tb cryptate / Ligand L1 displacement); settings: 8 nM CBL-B protein, 25° C., 60 minutes; Ki=Relative IC50/2
In short: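 Compounds in a 10-point DMSO series met 8 nM CBL-B protein in HEPES pH 7.5/NaCl/Triton/TCEP/BSA buffer at 25° C. for 60 min. A further 60 min at room temperature preceded the luminescence read, normalised to no-protein and DMSO wells. Ki was taken as relative IC50 divided by 2.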

Sequence of CBL-B protein (Q13191 whole entry): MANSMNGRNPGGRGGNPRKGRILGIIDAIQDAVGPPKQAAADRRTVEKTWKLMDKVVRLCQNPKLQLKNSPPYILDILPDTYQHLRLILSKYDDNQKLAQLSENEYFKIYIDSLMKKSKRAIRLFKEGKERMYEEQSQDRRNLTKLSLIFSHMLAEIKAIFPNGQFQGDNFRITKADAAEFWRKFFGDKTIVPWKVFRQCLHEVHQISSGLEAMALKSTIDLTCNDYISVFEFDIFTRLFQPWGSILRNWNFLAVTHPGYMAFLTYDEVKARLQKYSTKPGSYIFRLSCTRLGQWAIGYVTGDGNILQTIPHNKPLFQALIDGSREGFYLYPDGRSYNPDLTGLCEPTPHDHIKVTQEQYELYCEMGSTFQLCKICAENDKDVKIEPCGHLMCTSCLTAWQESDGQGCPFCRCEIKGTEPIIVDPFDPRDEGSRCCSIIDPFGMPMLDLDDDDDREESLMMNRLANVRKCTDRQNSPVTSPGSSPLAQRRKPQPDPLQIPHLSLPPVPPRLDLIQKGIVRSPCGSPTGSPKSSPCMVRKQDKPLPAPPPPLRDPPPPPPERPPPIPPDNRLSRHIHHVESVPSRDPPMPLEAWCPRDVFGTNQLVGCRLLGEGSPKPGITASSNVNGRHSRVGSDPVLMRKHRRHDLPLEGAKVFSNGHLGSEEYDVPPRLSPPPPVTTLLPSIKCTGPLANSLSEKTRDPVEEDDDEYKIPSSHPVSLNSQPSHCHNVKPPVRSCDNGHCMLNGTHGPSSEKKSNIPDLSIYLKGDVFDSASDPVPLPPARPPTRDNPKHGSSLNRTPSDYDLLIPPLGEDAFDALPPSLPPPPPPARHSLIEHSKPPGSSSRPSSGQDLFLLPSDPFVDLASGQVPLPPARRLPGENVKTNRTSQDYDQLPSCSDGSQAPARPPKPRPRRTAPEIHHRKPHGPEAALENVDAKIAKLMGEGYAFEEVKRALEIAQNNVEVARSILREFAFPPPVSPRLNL

| Ki (CBL-B protein) [nM] | SMILES | IL-2 CFC=5/nM [1] [nM] |
| --- | --- | --- |
| < 50 | Cn1cnnc1C1(c2cccc(-n3cc(C(F)(F)F)c4cc(CNCCCC(F)(F)F)[nH]c4c3=O)c2)CCC1 [Compound T091, 6-[3-[1-(4-methyl-1,2,4-triazol-3-yl)cyclobutyl]phenyl]-2-[(4,4,4-trifluorobutylamino)methyl]-4-(trifluoromethyl)-1H-pyrrolo[2,3-c]pyridin-7-one] | <500 |
| < 50 | CC[C@H]1C[C@@](c2cccc(-n3cc(C(F)(F)F)c4cc(CN5CCC[C@H](C)C5)[nH]c4c3=O)c2)(c2nncn2C)C1 [Compound T092, 6-(3-((1r,3R)-3-ethyl-1-(4-methyl-4H-1,2,4-triazol-3-yl)cyclobutyl)phenyl)-2-(((S)-3-methylpiperidin-1-yl)methyl)-4-(trifluoromethyl)-1,6-dihydro-7H-pyrrolo[2,3-c]pyridin-7-one] | <500 |
| < 50 | CC[C@H]1C[C@](c2cccc(-n3cc(C(F)(F)F)c4cc(CN5CCC[C@H](C)C5)[nH]c4c3=O)c2)(c2nncn2C)C1 [Compound T093, 6-(3-((1s,3S)-3-ethyl-1-(4-methyl-4H-1,2,4-triazol-3-yl)cyclobutyl)phenyl)-2-(((S)-3-methylpiperidin-1-yl)methyl)-4-(trifluoromethyl)-1,6-dihydro-7H-pyrrolo[2,3-c]pyridin-7-one] | <500 |
| < 50 | Cn1cnnc1C1(c2cccc(-n3cc(C(F)(F)F)c4cc(CNCCOC(F)(F)F)[nH]c4c3=O)c2)CCC1 [Compound T096, 6-[3-[1-(4-methyl-1,2,4-triazol-3-yl)cyclobutyl]phenyl]-2-[[2-(trifluoromethoxy)ethylamino]methyl]-4-(trifluoromethyl)-1H-pyrrolo[2,3-c]pyridin-7-one] | <500 |
| < 50 | C[C@H]1CCCN(Cc2cc3c(C(F)(F)F)cn(-c4cc(F)cc([C@]5(c6nncn6C)C[C@H](C)C5)c4)c(=O)c3[nH]2)C1 [Compound T103, 6-(3-fluoro-5-((1r,3S)-3-methyl-1-(4-methyl-4H-1,2,4-triazol-3-yl)cyclobutyl)phenyl)-2-(((S)-3-methylpiperidin-1-yl)methyl)-4-(trifluoromethyl)-1,6-dihydro-7H-pyrrolo[2,3-c]pyridin-7-one] | <500 |
| < 50 | C[C@H]1CCCN(Cc2cc3c(C(F)(F)F)cn(-c4cccc(C5(c6nncn6C)CC(F)(F)C5)c4)c(=O)c3[nH]2)C1 [Compound T109, 6-[3-[3,3-difluoro-1-(4-methyl-1,2,4-triazol-3-yl)cyclobutyl]phenyl]-2-[[(3S)-3-methyl-1-piperidyl]methyl]-4-(trifluoromethyl)-1H-pyrrolo[2,3-c]pyridin-7-one] | <500 |
| < 50 | C[C@@H]1CN(Cc2cc3c(C(F)(F)F)cn(-c4cccc(C5(c6nncn6C)CCC5)c4)c(=O)c3[nH]2)CCC1(F)F [Compound T111, (R)-2-((4,4-difluoro-3-methylpiperidin-1-yl)methyl)-6-(3-(1-(4-methyl-4H-1,2,4-triazol-3-yl)cyclobutyl)phenyl)-4-(trifluoromethyl)-1,6-dihydro-7H-pyrrolo[2,3-c]pyridin-7-one] | <500 |
| < 50 | C[C@H]1CCCN(Cc2cc3c(C(F)(F)F)cn(-c4cccc(C5([C@@H](F)c6nncn6C)CC(F)(F)C5)c4)c(=O)c3[nH]2)C1 [Compound T119, 6-(3-(3,3-difluoro-1-((R)-fluoro(4-methyl-4H-1,2,4-triazol-3-yl)methyl)cyclobutyl)phenyl)-2-(((S)-3-methylpiperidin-1-yl)methyl)-4-(trifluoromethyl)-1,6-dihydro-7H-pyrrolo[2,3-c]pyridin-7-one] | <500 |
| < 50 | C[C@H]1CCCN(Cc2cc3c(C(F)(F)F)cn(-c4cccc(C5([C@H](F)c6nncn6C)CC(F)(F)C5)c4)c(=O)c3[nH]2)C1 [Compound T120, 6-(3-(3,3-difluoro-1-((S)-fluoro(4-methyl-4H-1,2,4-triazol-3-yl)methyl)cyclobutyl)phenyl)-2-(((S)-3-methylpiperidin-1-yl)methyl)-4-(trifluoromethyl)-1,6-dihydro-7H-pyrrolo[2,3-c]pyridin-7-one] | <500 |
| < 50 | C[C@H]1CCCN(Cc2cc3c(C(F)(F)F)cn(-c4cc(C#N)cc([C@]5(c6nncn6C)C[C@@H](C)C5)c4)c(=O)c3[nH]2)C1 [Compound T121, 3-((1s,3R)-3-methyl-1-(4-methyl-4H-1,2,4-triazol-3-yl)cyclobutyl)-5-(2-(((S)-3-methylpiperidin-1-yl)methyl)-7-oxo-4-(trifluoromethyl)-1,7-dihydro-6H-pyrrolo[2,3-c]pyridin-6-yl)benzonitrile] | <500 |
| < 50 | C[C@H]1CCCN(Cc2cc3c(C(F)(F)F)cn(-c4cc(C#N)cc([C@]5(c6nncn6C)C[C@H](C)C5)c4)c(=O)c3[nH]2)C1 [Compound T122, 3-((1r,3S)-3-methyl-1-(4-methyl-4H-1,2,4-triazol-3-yl)cyclobutyl)-5-(2-(((S)-3-methylpiperidin-1-yl)methyl)-7-oxo-4-(trifluoromethyl)-1,7-dihydro-6H-pyrrolo[2,3-c]pyridin-6-yl)benzonitrile] | <500 |
| < 50 | C[C@H]1CCCN(Cc2cc3c(C(F)(F)F)cn(-c4cccc(C5(Cc6nncn6C)CC(F)(F)C5)c4)c(=O)c3[nH]2)C1 [Compound T126, 6-[3-[3,3-difluoro-1-[(4-methyl-1,2,4-triazol-3-yl)methyl]cyclobutyl]phenyl]-2-[[(3S)-3-methyl-1-piperidyl]methyl]-4-(trifluoromethyl)-1H-pyrrolo[2,3-c]pyridin-7-one] | <500 |
| < 50 | C[C@H]1CCCN(Cc2cc3c(C(F)(F)F)cn(-c4cccc([C@]5(c6nncn6C)C[C@@H](OC(F)(F)F)C5)c4)c(=O)c3[nH]2)C1 [Compound T130, 6-(3-((1s,3R)-1-(4-methyl-4H-1,2,4-triazol-3-yl)-3-(trifluoromethoxy)cyclobutyl)phenyl)-2-(((S)-3-methylpiperidin-1-yl)methyl)-4-(trifluoromethyl)-1,6-dihydro-7H-pyrrolo[2,3-c]pyridin-7-one] | <500 |
| < 50 | C[C@H]1CCCN(Cc2cc3c(C(F)(F)F)cn(-c4cccc([C@]5(c6nncn6C)C[C@H](OC(F)(F)F)C5)c4)c(=O)c3[nH]2)C1 [Compound T131, 6-(3-((1r,3S)-1-(4-methyl-4H-1,2,4-triazol-3-yl)-3-(trifluoromethoxy)cyclobutyl)phenyl)-2-(((S)-3-methylpiperidin-1-yl)methyl)-4-(trifluoromethyl)-1,6-dihydro-7H-pyrrolo[2,3-c]pyridin-7-one] | <500 |
| < 50 | CO[C@H]1C[C@@](c2cccc(-n3cc(C(F)(F)F)c4cc(CN5CCC[C@H](C)C5)[nH]c4c3=O)c2)(c2nncn2C)C1 [Compound T134, 6-(3-((1s,3R)-3-methoxy-1-(4-methyl-4H-1,2,4-triazol-3-yl)cyclobutyl)phenyl)-2-(((S)-3-methylpiperidin-1-yl)methyl)-4-(trifluoromethyl)-1,6-dihydro-7H-pyrrolo[2,3-c]pyridin-7-one] | <500 |
| < 50 | CO[C@H]1C[C@](c2cccc(-n3cc(C(F)(F)F)c4cc(CN5CCC[C@H](C)C5)[nH]c4c3=O)c2)(c2nncn2C)C1 [Compound T135, 6-(3-((1r,3S)-3-methoxy-1-(4-methyl-4H-1,2,4-triazol-3-yl)cyclobutyl)phenyl)-2-(((S)-3-methylpiperidin-1-yl)methyl)-4-(trifluoromethyl)-1,6-dihydro-7H-pyrrolo[2,3-c]pyridin-7-one] | <500 |
| < 50 | CO[C@H]1C[C@@](c2cccc(-n3cc(C(F)(F)F)c4cc(CN5CC6CCC(C6)C5)[nH]c4c3=O)c2)(c2nncn2C)C1 [Compound T145, 2-((3-azabicyclo[3.2.1]octan-3-yl)methyl)-6-(3-((1s,3s)-3-methoxy-1-(4-methyl-4H-1,2,4-triazol-3-yl)cyclobutyl)phenyl)-4-(trifluoromethyl)-1,6-dihydro-7H-pyrrolo[2,3-c]pyridin-7-one] | <500 |

| SMILES | Ki (CBL-B protein) [nM] | IL-2 CFC=5/nM [1] [nM] |
| --- | --- | --- |
| Cn1cnnc1C1(c2cccc(-n3cc(C(F)(F)F)c4cc(CNCCOC5CCCC5)[nH]c4c3=O)c2)CCC1 [Compound T097, 2-[[2-(cyclopentoxy)ethylamino]methyl]-6-[3-[1-(4-methyl-1,2,4-triazol-3-yl)cyclobutyl]phenyl]-4-(trifluoromethyl)-1H-pyrrolo[2,3-c]pyridin-7-one] | < 50 | <500 |
| CCNCc1cc2c(C(F)(F)F)cn(-c3cccc(C4(c5nncn5C)CCC4)c3)c(=O)c2[nH]1 [Compound T102, 2-((ethylamino)methyl)-6-(3-(1-(4-methyl-4H-1,2,4-triazol-3-yl)cyclobutyl)phenyl)-4-(trifluoromethyl)-1,6-dihydro-7H-pyrrolo[2,3-c]pyridin-7-one] | < 50 | <500 |
| CC(C)NCc1cc2c(C(F)(F)F)cn(-c3cccc(C4(c5nncn5C)CCC4)c3)c(=O)c2[nH]1 [Compound T104, 2-((isopropylamino)methyl)-6-(3-(1-(4-methyl-4H-1,2,4-triazol-3-yl)cyclobutyl)phenyl)-4-(trifluoromethyl)-1,6-di hydro-7H-pyrrolo[2,3-c]pyridin-7-one] | < 50 | <500 |
